# Measured values from patent US6569461B1, “Dihydroxy open-acid and salts of HMG-CoA reductase inhibitors” (Merck & Co., Inc., priority 1999, dated 2003).
# What was measured:
# [1] = human, in vivo
# Method: (§1) Intraduodenal administration was accomplished via a nasoduodenal tube placed under fluoroscopic guidance by an experienced gastroenterologist just prior to dosing and removed following the 1-hr postdose measurements.
# (§2) All calculations were based on designated sampling times or actual sampling times when they differed from the designated times by more than 10 minutes.
# [2] = Plasma total and active HMG-CoA reductase inhibitory activity (enzymatic assay) in open, randomized, four-period crossover study with or without itraconazole; details: human, in vivo
# Method: as §1, §2
smiles,measurement,setting,value
"CCC(C)(C)C(=O)O[C@H]1C[C@@H](C)C=C2C=C[C@H](C)[C@H](CC[C@@H](O)C[C@@H](O)CC(=O)O)[C@H]21 [SVA, dihydroxy open acid simvastatin]",effect of itraconazole on apparent t1/2 values,[1],essentially unchanged
same,effect of itraconazole measured as the unchanged drug,[1]; male,1.5 fold
same,"AUC, Active Inhibitors",[2],54.1 ± 28.5 ng eq·hr/mL
same,"Cmax, Active Inhibitors",[2],5.7 ± 3.0 ng eq/mL
same,change by itraconazole pretreatment in AUC and Cmax of HMG-CoA reductase inhibitory activity (total or active),[2]; male,1.3-1.5 fold
